Laboratory results as given in US6080791A, “Method of treating a viral condition by inhibiting membrane fusion” (priority 1992, dated 2000).
Like-named read-outs stand apart in the source and are kept apart here.

How the values were obtained:
low pH BHA = experiment: SPA POST control (nonspecific quenching); design: species or system C22 / X31 influenza virus (H3N2)
Experimental: The compounds being screened by SPA are present during scintillation counting. Some of the chemicals, particularly those that are highly colored, quench the detection of radioactivity. A control ("POST") distinguishes whether apparent inhibition arises from inhibition of the conformational change or from nonspecific effects. The test compound is added to a sample of BHA that had previously been acidified and reneutralized. The mixture is then precipitated as usual. Since the BHA treated in this manner is known to be in the low pH conformation, a reduction in measurable cpm compared to controls with ligand omitted proves the compound interferes with the detection system.
^3 H-Leu BHA was diluted to 10,000 cpm (counts per minute) per 200 μl in MSSH buffer (10 mM HEPES, 10 mM MES, 10 mM succinate, 0.10 M NaCl, pH 7.0) containing 0.1% NP40. Protein was incubated with the specified concentration of trial compound for 25 minutes at RT. The same volume of solvent used to dissolve the compound was added to control samples and the final concentration of DMSO in all solutions was 0.67% v/v. A predetermined amount of 1N HAc was added to bring the reactions to the appropriate pH (usually pH 5.0). Following a 5 minute (unless specified otherwise) incubation at RT, reactions were reneutralized with 1N NaOH. For POST controls, compounds were added to the appropriate concentration after reneutralization. 200 μL aliquots of the protein solution were added to scintillation vials containing 100 μl protein A-SPA beads (Amersham), 5% fetal bovine serum (FBS), and antibody. Vials were incubated overnight at RT with constant shaking. Each reaction used 10 μl of fusion peptide antiserum diluted 1:10 with 50% glycerol. Cpm were detected in a Beckman LS3801 scintillation counter without addition of liquid scintillant.
Apparent inhibition due to nonspecific effects was quantitated from the POST controls with the equation:
observed cpm=true cpm*quench factor

[1] = molecular target: hemagglutinin (BHA), fusion peptide exposure (Influenza A virus (A/X-31(H3N2)), UniProt P03438); assay type: biochemical, C22 / X31 influenza virus (H3N2)
in vitro = conditions: dog, mdck
Experimental: The ELISA-based assay described below (EIA antiviral assay) was used to measure antiviral activity. Cell viability was measured in parallel to distinguish inhibition of viral replication from toxicity.
Infections of MDCK2 cells with virus, compounds, and DMSO were set up identically as for the EIA assay. Following the 15 hour incubation, test compounds were washed away with PBS. 50 μl of MDCK2 growth media and 25 μl 2 mg/ml 3-(4,5-dimethylthiazol-2-yl)-2,5-diphenyl tetrazolium bromide (Sigma) in PBS were added to each well. Plates were returned to 37° C., 5% CO2 for 4 hrs. Crystals were broken up by vigorous mixing following addition of 80 μl isopropanol/0.04 N HCl. After incubation for 30 mins at RT, OD570 was read on an ELISA reader. % Inhibition is the % reduction of OD570 in the wells infected with compound compared to otherwise identical samples with compound omitted.

[2] = test system: hemagglutinin-mediated hemolysis of human red blood cells; experiment: Hemolysis (HEM) assay; assay type: cell-based, C22 influenza virus; human red blood cells; conditions: for inhibition at 100 µM / IC50 / inhibition at 1000 µM / inhibition at 10 µM / inhibition at 1 µM: unidentified influenza virus, Erythrocyte; for inhibition at 1 µM: log conc -6 (M)
C22 virus in MDCK2 cells [3] = experiment: microbe, parasite or virus in culture; conditions: unidentified influenza virus; for inhibition at 1 µM / inhibition at 10 µM / inhibition at 100 µM: MDCK2, 15 h, read-out: infectivity % inhibition
hemoglobin = experiment: Hb control (quenching of OD570 of hemoglobin); design: species or system human
C22 virus in MDCK2 cells [4] = test system: C22 virus in MDCK2 cells
[5] = Table 7, preliminary results, read-out: HEM, negative log of IC50 (preliminary results) (converted)
[6] = log conc -3 (M), read-out: hemolysis % ↓ OD
[7] = log conc -4 (M), read-out: hemolysis % ↓ OD
[8] = log conc -5 (M), read-out: hemolysis % ↓ OD
[9] = MDCK2, read-out: INF, negative log of IC50 (preliminary results) (converted)
[10] = 0.25 h, Table 6, 10^-3 = 1 mM, low pH 15 minutes, read-out: IC50 hemolysis

hemagglutinin (BHA), fusion peptide exposure (Influenza A virus (A/X-31(H3N2)), UniProt P03438), sequence (P03438 whole entry, looked up, the tested form may be a part): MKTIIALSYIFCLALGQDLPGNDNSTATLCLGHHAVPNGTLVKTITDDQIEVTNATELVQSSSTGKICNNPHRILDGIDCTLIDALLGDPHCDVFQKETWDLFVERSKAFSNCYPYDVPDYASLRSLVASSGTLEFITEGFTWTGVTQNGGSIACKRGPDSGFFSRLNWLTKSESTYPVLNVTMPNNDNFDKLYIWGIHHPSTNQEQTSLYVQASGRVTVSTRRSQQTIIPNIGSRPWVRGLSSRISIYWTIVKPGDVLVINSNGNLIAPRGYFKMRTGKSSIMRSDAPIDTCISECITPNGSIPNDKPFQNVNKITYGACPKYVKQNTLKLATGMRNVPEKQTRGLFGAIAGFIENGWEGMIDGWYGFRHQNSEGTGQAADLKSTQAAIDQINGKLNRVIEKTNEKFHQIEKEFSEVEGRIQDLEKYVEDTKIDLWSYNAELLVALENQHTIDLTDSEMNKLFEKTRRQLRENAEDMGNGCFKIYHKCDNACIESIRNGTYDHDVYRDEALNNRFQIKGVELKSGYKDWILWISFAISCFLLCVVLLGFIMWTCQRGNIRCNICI

Oc1ccc(O)c2c1C1C=CC2C1 [Compound 83A, 5,8-dihydro-5,8-methano-1,4-naphthalenediol]
% inhibition, POST control (low pH BHA; log conc -3 (M)): 0.5 ± 1.1% | % inhibition, POST control (low pH BHA; log conc -4 (M)): -0.9 ± 1.5% | % inhibition, POST control (low pH BHA; log conc -5 (M)): -0.5% | % inhibition, POST control (low pH BHA; log conc -6 (M)): 10.8% | SPA activity [1]: significantly higher activity

COC(=O)C1C2C=CC(C2)C1C(=O)OC (stereo not shown) [Compound 85, dimethylbicyclo[2.2.1]-5-heptene-2,3-dicarboxylate]
inhibition in the SPA assay ([1]; 1 μM-1 mM): showed no inhibition

O=C(O)C1C2C=CC(O2)C1C(=O)O (stereo not shown) [Compound 86, 3,6-endoxo-1,2,3,6-tetrahydrophthalic acid]
inhibition in the SPA assay ([1]; 1 μM-1 mM): showed no inhibition | activity note in Table 7 ([1]; Table 7): inactive

COC(=O)C1C2C=CC(C2)C1C(=O)O (stereo not shown) [Compound 87, 5-norbornene-2,3-dicarboxylic acid monomethyl ester]
inhibition in the SPA assay ([1]; 1 μM-1 mM): showed no inhibition

CC(=O)OC1CC2CC1C1C3C=CC(C3)C21 (stereo not shown) [Compound 88, 1,2,3,4,4A,5,8,8A-octahydro-1,4:5,8-dimethanonaphth-2-yl acetate]
inhibition in the SPA assay ([1]; 1 μM-1 mM): showed no inhibition | activity note in Table 7 ([1]; Table 7): inactive

O=C(O)[C@@H]1[C@H](C(=O)O)[C@@H]2C=C[C@H]1C2 [Compound 89, cis-5-norbornene-endo-2,3-dicarboxylic acid]
inhibition in the SPA assay ([1]; 1 μM-1 mM): showed no inhibition | activity note in Table 7 ([1]; Table 7): inactive

O=C(O)C1C=CCC2C(=O)C=CC(=O)C12 (stereo not shown) [Compound 91, 5,8-dioxo-1,4,4A,5,8,8A-hexahydro-1-naphthalene carboxylic acid]
cytotoxicity at 15 h, 1 µM (in vitro): -0.06 ± 5.1% | cytotoxicity at 15 h, 10 µM (in vitro): -2 ± 9.4% | cytotoxicity at 15 h, 100 µM (in vitro): -4.3 ± 7% | inhibition of hemolytic activity [2]: apparently inhibited hemolytic activity | inhibition at 100 µM ([2]; 0.1 mM, pH 5.0, FIG. 8, read-out: Maximum inhibition of hemolysis): 61% | IC50 [2, 5]: 0.1 to 1 mM | inhibition at 1000 µM [2, 6]: 91 ± 14.6% | inhibition at 100 µM [2, 7]: 60.5 ± 0.7% | inhibition at 10 µM [2, 8]: 13.2% | inhibition at 1 µM ([2]; read-out: hemolysis % ↓ OD): -5.1% | inhibition at 1 µM (C22 virus in MDCK2 cells [3]): -1.3 ± 4% | inhibition at 10 µM (C22 virus in MDCK2 cells [3]): 6.5 ± 7% | inhibition at 100 µM (C22 virus in MDCK2 cells [3]): 70.9 ± 39.8% | IC50 (C22 virus in MDCK2 cells [3]; [9]): 10 to 100 µM | Hb control % ↓ OD (hemoglobin; log conc -3 (M)): 29.6 ± 2.5% | Hb control % ↓ OD (hemoglobin; log conc -4 (M)): 26.8 ± 5.0% | Hb control % ↓ OD (hemoglobin; log conc -5 (M)): 11% | Hb control % ↓ OD (hemoglobin; log conc -6 (M)): 3% | % inhibition, POST control (low pH BHA; log conc -3 (M)): 54.5%

ClC1(Cl)C2CC3C4C=CC(C4)C3C21 (stereo not shown) [Compound 92, 5,5-dichlorotetracyclo-[6.2.1.0,2,7.0.4.6] undec-9-ene]
inhibition in the SPA assay ([1]; 1 μM-1 mM): showed no inhibition

O=C1C2C3C=CC(C3)C2C(=O)N1O (stereo not shown) [Compound 94, N-hydroxy-5-norbornene-2,3-dicarboximide]
inhibition in the SPA assay ([1]; 1 μM-1 mM): showed no inhibition | activity note in Table 7 ([1]; Table 7): inactive

CN1C(=O)C2C3C=CC(C3)C2C1=O (stereo not shown) [Compound 95, N-methyl-5-norbornene-2,3-dicarboximide]
inhibition in the SPA assay ([1]; 1 μM-1 mM): showed no inhibition | activity note in Table 7 ([1]; Table 7): inactive

OC1CC2CC1C1C3C=CC(C3)C21 (stereo not shown) [Compound 96, 1,2,3,4,4A,5,8,8A-octahydro-1,4:5,8-dimethano-2-naphthol]
inhibition in the SPA assay ([1]; 1 μM-1 mM): showed no inhibition

COC(=O)C1C=CCC2C(=O)C=CC(=O)C12 (stereo not shown) [Compound 97, methyl 5,8-dioxo-1,4,4A,5,8,8A-hexahydro-1-naphthalenecarboxylate]
cytotoxicity at 15 h, 1 µM (in vitro): -3.1 ± 7.9% | cytotoxicity at 15 h, 10 µM (in vitro): 32.9 ± 30.9% | cytotoxicity at 15 h, 100 µM (in vitro): 95.9 ± 8% | inhibition of hemolytic activity [2]: apparently inhibited hemolytic activity | IC50 [2, 5]: 0.1 mM | inhibition at 1000 µM [2, 6]: 102 ± 5.8% | inhibition at 100 µM [2, 7]: 94.6% | inhibition at 10 µM [2, 8]: 23.7% | inhibition at 1 µM ([2]; read-out: hemolysis % ↓ OD): 6.6% | inhibition at 1 µM (C22 virus in MDCK2 cells [3]): -4.7 ± 9.4% | inhibition at 10 µM (C22 virus in MDCK2 cells [3]): 92.6 ± 12.7% | IC50 (C22 virus in MDCK2 cells [3]; [9]): 1 to 10 µM | Hb control % ↓ OD (hemoglobin; log conc -3 (M)): 55.0 ± 13.3% | Hb control % ↓ OD (hemoglobin; log conc -4 (M)): 37.6 ± 4.9% | Hb control % ↓ OD (hemoglobin; log conc -5 (M)): 31% | Hb control % ↓ OD (hemoglobin; log conc -6 (M)): 13.0%

O=C(O)C1C2C=CC(C2)C1C(=O)Nc1ccccc1 (stereo not shown) [Compound 98, 3-(N-phenylcarbamoyl)-5-norbornen-2-carboxylic acid]
inhibition in the SPA assay ([1]; 1 μM-1 mM): showed no inhibition

O=C1NC(=O)c2ccccc21 [Compound 100, phthalimide]
inhibition in the SPA assay ([1]; 1 μM-1 mM): showed no inhibition | activity note in Table 7 ([1]; Table 7): inactive

N#Cc1c(O)ccc(O)c1C#N [Compound 103, 2,3-dicyanohydroquinone]
inhibition in the SPA assay ([1]; 1 μM-1 mM): showed no inhibition | activity note in Table 7 ([1]; Table 7): inactive

Oc1ccc(O)cc1 [Compound 104, hydroquinone]
activity note in Table 7 [1]: inactive | inhibition in the SPA assay [1]: showed no inhibition

Oc1cccc2ccccc12 [Compound 106, 1-naphthol]
inhibition in the SPA assay ([1]; 1 μM-1 mM): showed no inhibition | activity note in Table 7 ([1]; Table 7): inactive

O=c1[nH][nH]c(=O)c2ccccc12 [Compound 108, phthalhydrazide]
inhibition in the SPA assay ([1]; 1 μM-1 mM): showed no inhibition | activity note in Table 7 ([1]; Table 7): inactive

OC1=CCC2C3C=CC(C3)C12 (stereo not shown) [Compound 109, hydroxydicyclopentadiene]
inhibition in the SPA assay ([1]; 1 μM-1 mM): showed no inhibition | activity note in Table 7 ([1]; Table 7): inactive

Cl.N=C(N)Sc1cc(O)ccc1O [Compound 112, 2-(2,5-dihydroxyphenyl)-2-thiopseudourea hydrochloride]
% inhibition, sample [1]: 40.1%

CC1=CC(=O)c2ccccc2C1=O [Compound 118, 2-methyl-1,4-naphthoquinone]
inhibition in the SPA assay ([1]; 1 μM-1 mM): showed no inhibition | activity note in Table 7 ([1]; Table 7): inactive

O=C1C=CC(=O)c2c(O)cccc21 [Compound 119, 5-hydroxy-1,4-naphthoquinone]
cytotoxicity at 15 h, 100 µM (in vitro): 97.8% | inhibition in the SPA assay ([1]; 1 μM-1 mM): showed no inhibition | activity note in Table 7 ([1]; Table 7): inactive

Cl.Nc1ccc(O)c2ccccc12 [Compound 121, 4-amino-1-naphthol hydrochloride]
cytotoxicity at 15 h, 100 µM (in vitro): 100% | IC50 ([2]; 0.25 h, read-out: IC50 hemolysis): ≥ 1 mM | IC50 ([2]; read-out: HEM, negative log of IC50 (converted)): ≥ 1 mM | inhibition at 10 µM ([2]; read-out: hemolysis % ↓ OD): -4.6 ± 0.1% | inhibition at 100 µM ([2]; read-out: hemolysis % ↓ OD): 31.5 ± 7.8% | inhibition at 1000 µM ([2]; read-out: hemolysis % ↓ OD): 116% | INF, words (Table 7) (C22 virus in MDCK2 cells [4]): toxic | infectivity in Table 6 (C22 virus in MDCK2 cells [4]): toxic | Hb control % ↓ OD (hemoglobin): 68.0%

CCOC(=O)c1c(C)cc(O)cc1O [Compound 122, ethyl 2,4-dihydroxy-6-methylbenzoate]
inhibition in the SPA assay ([1]; 1 μM-1 mM): showed no inhibition | activity note in Table 7 ([1]; Table 7): inactive

Oc1ccc2ccccc2c1O [Compound 124, 1,2-dihydroxynaphthalene]
cytotoxicity at 15 h, 100 µM (in vitro): 80.5% | infectivity in Table 6 (C22 virus in MDCK2 cells [4]; Table 6): toxic | INF, words (Table 7) (C22 virus in MDCK2 cells [4]; Table 7): toxic

Oc1cccc2c(O)cccc12 [Compound 126, 1,5-naphthalenediol]
cytotoxicity at 15 h, 1 µM (in vitro): -6.9 ± 4% | cytotoxicity at 15 h, 10 µM (in vitro): -9.2 ± 0.6% | cytotoxicity at 15 h, 100 µM (in vitro): -7.6 ± 7.3% | inhibition of hemolytic activity [2]: apparently inhibited hemolytic activity | IC50 [2, 10]: 1 mM | IC50 ([2]; Table 7, read-out: HEM, negative log of IC50 (converted)): 1 mM | inhibition at 1000 µM [2, 6]: 101 ± 7.6% | inhibition at 1 µM (C22 virus in MDCK2 cells [3]): 3.8 ± 5.5% | inhibition at 10 µM (C22 virus in MDCK2 cells [3]): 7.4 ± 1.8% | inhibition at 100 µM (C22 virus in MDCK2 cells [3]): 35.6 ± 0.6% | IC50 (C22 virus in MDCK2 cells [3]; MDCK2, read-out: IC50 infectivity): > 100 µM | IC50 (C22 virus in MDCK2 cells [3]; MDCK2, read-out: INF, negative log of IC50 (converted)): > 100 µM | Hb control % ↓ OD (hemoglobin; log conc -3 (M)): 54.4 ± 3.7%

Oc1cccc2cccnc12 [Compound 127, 8-hydroxyquinoline]
activity note in Table 7 [1]: inactive | inhibition in the SPA assay [1]: showed no inhibition

O=C1C=C(Br)C(=O)c2ccccc21 [Compound 135, 2-bromo-1,4-naphthoquinone]
inhibition of hemolytic activity [2]: did not | IC50 [2, 10]: > 1 mM | inhibition at 1000 µM [2, 6]: 80.3% | Hb control % ↓ OD (hemoglobin; log conc -3 (M)): 75.2%
